Results from ChEMBL document CHEMBL1141071, “Carbonic anhydrase inhibitors: stacking with Phe131 determines active site binding region of inhibitors as exemplified by the X-ray crystal structure of a membrane-impermeant antitumor sulfonamide complexed with isozyme II” (J Med Chem, 2005).

Molecular target: Carbonic anhydrase 9 (Homo sapiens, UniProt Q16790)
Description: Inhibition of catalytic domain of human recombinant carbonic anhydrase IX

With `Cc1ccc(-c2cc(C(F)(F)F)nn2-c2ccc(S(N)(=O)=O)cc2)cc1` [CELECOXIB] the Ki was 16 nM.
